# Columns and labels:
# [1] = test system: DNA; experiment: DNA damage, comet formation; format: cell-based; details: for effect on comet formation induced by BZL101: cells pretreated prior to the addition of BZL101
# Description: There is a different fold increase of ROS levels in different cells treated with BZL101 compared to control untreated cells. It is of particular interest that the increase in ROS correlates well with the degree of DNA damage induced in these cells.
# To further implicate ROS in the induction of DNA damage, comet formation in cells pretreated with the antioxidants NAC and pyruvate prior to the addition of BZL101 were examined.
# [2] = test system: SKBr3 cells; experiment: 8-oxoguanine, flow cytometry with avidin fluorescein; format: cell-based, human; details: cells pretreated prior to addition of BZL101
# Experimental: To verify that BZL101 leads to oxidative DNA damage, it was determined whether the DNA of BZL101-treated cells contains 8-oxoguanine, the most ubiquitous marker of DNA oxidation. […] (See FIG. 9). […] (See FIG. 10). Analysis of the 8-oxoguanidine and apurininc/apyrimidinic (AP) bases in DNA. The Calbiochem kit was used for staining of the fixed and permeabilized cells with avidin fluorescein. Quantification of apurinic/[…] nucleotides in genomic DNA was performed using the DNA damage quantification kit from BioVision Research Products.
# [3] = test system: ROS; experiment: ROS generation, staining with ROS-sensitive probe CM-H2DCFDA; format: cell-based; details: incubation of cells prior to addition of BZL101; SKBr3 cells
Compound,effect on comet formation induced by BZL101 [1],effect on BZL101-induced increase in avidin binding (8-oxoguanine) [2],effect on BZL101-induced ROS generation [3],"DNA damage repair in cancer cells ([1]; in the presence of the antioxidant, BZL101-treated cancer cells)"
CC1(C)N([O])C(c2ccccc2)=[N+]([O-])C1(C)C [PTIO],no effect,,,
"CC(=O)N[C@@H](CS)C(=O)O [NAC, N-acetyl-cysteine]",significantly reduced the number of cells forming comets,completely abolished,prevented most of the increase in ROS generation,greatly accelerated

# — patent publication US8512961B2, “Methods of detecting and treatment of cancers using Scutellaria barbata extract” (Bionovo, Inc., priority 2007, dated 2013)
